Laboratory results taken from article PMC7462607 (eLife, 2020).

Tested on: CCNK
Experiment: Western blotting of CCNK protein level in A549 cells
Assay type: cell-based, Homo sapiens
Description: Standard SDS-PAGE and western blotting procedures were used with the following modifications. For preparation of total lysates, cells were rinsed with DPBS to remove residual medium and then lysed in 20 mM HEPES-NaOH, pH 8.0, 10 mM NaCl, 2 mM MgCl2, 1% SDS freshly supplemented with 0.5 units/µL of benzonase and 1x cOmplete, Mini, EDTA-free protease inhibitor cocktail (Roche, Bazel, Switzerland). Protein concentrations of the resulting lysates were quantified by the BCA method. Between 30 to 60 µg of proteins were resolved on SDS-PAGE and transferred to nitrocellulose membranes with a pore size of 0.5 μm. Membranes were blocked in 5% nonfat milk PBST (0.1% v/v Tween-20) for 30 min before blotting with antibodies. The following primary antibodies were used by dilution in 5% nonfat milk PBST: anti-NRF2 (Abcam, Cambridge, UK, ab62352, 1:4,000), anti-β-Actin-HRP (Huaxingbio, Beijing, China, HX18271,1:10,000), anti-α-Tubulin-HRFP (MBL Life Science, Japan, PM054-7, 1:10,000), anti-DDB1 (Abcam, Cambridge, UK, ab109027, 1:10,000), anti-RBX1 (Proteintech, Wuhan, China, 14895–1-AP, 1:5,000), anti-UBE2G1 (Proteintech, Wuhuan, China, 12012–1-AP, 1:2,000), anti-CDK12 (Cell Signaling Technology, Danvers, USA, 11973S,1:4,000), anti-CCNK (Bethyl lab, Montgomery, USA, A301-939A-T,1:4,000), anti-FLAG-HRP (Sigma-Aldrich, MO, USA, A8592, 1:10,000), anti-HA (BioLegend, San Diego, USA, 901533, 1:4,000), anti-RNA polymerase II subunit B1 (phospho CTD Ser-2) clone 3E10 (Sigma-Aldrich, MO, USA, 04–1571, 1:5,000), and anti-RNA polymerase II CTD repeat YSPTSPS antibody clone 8WG16 (Abcam, Cambridge, UK, ab817, 1:5,000). The following HRP-linked secondary antibodies were used by dilution in PBST: anti-rabbit IgG (Cell Signaling Technology, Danvers, USA, 7074S, 1:10,000), anti-mouse IgG (Zsbio, Beijing, China, ZB-2305, 1:10,000), and anti-rat IgG, (Sino Biological, Beijing, China, SSA005, 1:10,000). M5 HiPer ECL Western HRP Substrate (Mei5bio, Beijing, China, MF074-01) was used for the detection of HRP enzymatic activity. Western blot images were taken with a VILBER FUSION FX7 imager.

For `Cc1cccc(Nc2nc(CC(=O)Nc3ncc(C)s3)cs2)n1` [HQ461, 2-(2-((6-methylpyridin-2-yl)amino)thiazol-4-yl)-N-(5-methylthiazol-2-yl)acetamide], the “reduction of the CCNK protein level” value (A549, 4 hr treatment) was over 8 fold and the “CCNK protein level in cells with CDK12 G731E or G731R mutation” value (A549 CDK12 G731E/G731R cells) was “not affected”.
